Target: T1, human VR1 (Homo sapiens, UniProt Q8NER1)
T1 construct: expressed in transfected cells
Assay: FLIPR based calcium assay, antagonism of capsaicin response in 1321N1 cells stably expressing human VR1
Type: cell-based
Conditions: transfected astrocytoma 1321N1 cells, 30 min pre-incubation, capsaicin challenge; pKb generated from IC50 using the Cheng-Prusoff equation
Procedure: The plates were then washed 4 times with Tyrode containing 1.5 mM calcium, without probenecid. […] Capsaicin (Sigma) was then added to the cells. Compounds having antagonist activity against the human VR1 were identified by detecting differences in fluorescence when measured after capsaicin addition, compared with no compound buffer controls.

T1 sequence (Q8NER1 whole entry): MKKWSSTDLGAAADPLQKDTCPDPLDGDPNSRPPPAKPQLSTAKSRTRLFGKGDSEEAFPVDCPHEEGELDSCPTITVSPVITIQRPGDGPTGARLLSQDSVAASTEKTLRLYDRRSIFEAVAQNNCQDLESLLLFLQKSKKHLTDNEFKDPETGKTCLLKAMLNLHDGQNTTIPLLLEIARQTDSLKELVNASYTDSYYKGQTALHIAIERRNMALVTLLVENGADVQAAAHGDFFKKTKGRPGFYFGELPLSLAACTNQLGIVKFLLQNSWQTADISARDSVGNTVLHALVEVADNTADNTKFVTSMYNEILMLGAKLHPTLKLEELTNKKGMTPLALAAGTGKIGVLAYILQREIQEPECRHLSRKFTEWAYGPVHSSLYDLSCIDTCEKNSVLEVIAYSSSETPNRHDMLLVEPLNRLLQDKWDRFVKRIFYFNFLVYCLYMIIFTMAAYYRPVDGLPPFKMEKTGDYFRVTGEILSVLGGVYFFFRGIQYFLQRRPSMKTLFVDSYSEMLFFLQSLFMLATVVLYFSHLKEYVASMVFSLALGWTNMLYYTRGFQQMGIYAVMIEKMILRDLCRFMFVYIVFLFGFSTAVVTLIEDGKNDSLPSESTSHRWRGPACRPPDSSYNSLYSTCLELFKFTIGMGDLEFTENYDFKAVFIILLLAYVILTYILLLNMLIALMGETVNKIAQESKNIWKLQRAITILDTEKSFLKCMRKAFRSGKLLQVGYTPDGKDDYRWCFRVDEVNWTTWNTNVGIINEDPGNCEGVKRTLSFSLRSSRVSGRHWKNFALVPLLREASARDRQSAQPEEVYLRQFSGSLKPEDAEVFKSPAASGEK

Kb: < 100 nM
SMILES: Cc1cc2c(NC(=O)NC3CN(c4ccc(C(F)(F)F)cn4)C3)cccc2nn1 [Example 16]

From US7514562B2, “Urea derivatives and their use as vanilloid receptor antagonists in the treatment of pain” (Glaxo Group Limited, priority 2003, dated 2009)
